ChEMBL document CHEMBL5653615 (J Biol Chem, 2013)

Assays:
[1] = target: T1, Activin receptor type-1 (Homo sapiens) (UniProt Q04771); test: Inhibition of human ALK2 at 18.6 nM by HotSpot assay relative to control
T1 sequence (whole entry): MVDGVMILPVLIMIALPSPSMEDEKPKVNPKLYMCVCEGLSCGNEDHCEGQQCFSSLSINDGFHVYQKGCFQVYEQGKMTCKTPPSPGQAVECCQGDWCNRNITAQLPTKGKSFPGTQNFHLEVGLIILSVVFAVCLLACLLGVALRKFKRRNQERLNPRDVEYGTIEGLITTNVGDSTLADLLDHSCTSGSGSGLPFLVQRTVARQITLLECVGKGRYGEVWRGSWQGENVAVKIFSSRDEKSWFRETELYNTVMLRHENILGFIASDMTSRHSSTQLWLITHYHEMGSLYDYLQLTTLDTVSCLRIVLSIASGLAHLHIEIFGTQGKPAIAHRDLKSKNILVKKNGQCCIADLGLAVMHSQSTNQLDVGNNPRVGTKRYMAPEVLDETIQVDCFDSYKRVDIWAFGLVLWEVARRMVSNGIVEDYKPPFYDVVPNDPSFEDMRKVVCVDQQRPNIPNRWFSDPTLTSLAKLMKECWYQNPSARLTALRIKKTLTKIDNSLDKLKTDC

[2] = target: T2, Tyrosine-protein kinase Mer (Homo sapiens) (UniProt Q12866); test: Inhibition of human c-MER at 18.6 nM by HotSpot assay relative to control
T2 sequence (whole entry): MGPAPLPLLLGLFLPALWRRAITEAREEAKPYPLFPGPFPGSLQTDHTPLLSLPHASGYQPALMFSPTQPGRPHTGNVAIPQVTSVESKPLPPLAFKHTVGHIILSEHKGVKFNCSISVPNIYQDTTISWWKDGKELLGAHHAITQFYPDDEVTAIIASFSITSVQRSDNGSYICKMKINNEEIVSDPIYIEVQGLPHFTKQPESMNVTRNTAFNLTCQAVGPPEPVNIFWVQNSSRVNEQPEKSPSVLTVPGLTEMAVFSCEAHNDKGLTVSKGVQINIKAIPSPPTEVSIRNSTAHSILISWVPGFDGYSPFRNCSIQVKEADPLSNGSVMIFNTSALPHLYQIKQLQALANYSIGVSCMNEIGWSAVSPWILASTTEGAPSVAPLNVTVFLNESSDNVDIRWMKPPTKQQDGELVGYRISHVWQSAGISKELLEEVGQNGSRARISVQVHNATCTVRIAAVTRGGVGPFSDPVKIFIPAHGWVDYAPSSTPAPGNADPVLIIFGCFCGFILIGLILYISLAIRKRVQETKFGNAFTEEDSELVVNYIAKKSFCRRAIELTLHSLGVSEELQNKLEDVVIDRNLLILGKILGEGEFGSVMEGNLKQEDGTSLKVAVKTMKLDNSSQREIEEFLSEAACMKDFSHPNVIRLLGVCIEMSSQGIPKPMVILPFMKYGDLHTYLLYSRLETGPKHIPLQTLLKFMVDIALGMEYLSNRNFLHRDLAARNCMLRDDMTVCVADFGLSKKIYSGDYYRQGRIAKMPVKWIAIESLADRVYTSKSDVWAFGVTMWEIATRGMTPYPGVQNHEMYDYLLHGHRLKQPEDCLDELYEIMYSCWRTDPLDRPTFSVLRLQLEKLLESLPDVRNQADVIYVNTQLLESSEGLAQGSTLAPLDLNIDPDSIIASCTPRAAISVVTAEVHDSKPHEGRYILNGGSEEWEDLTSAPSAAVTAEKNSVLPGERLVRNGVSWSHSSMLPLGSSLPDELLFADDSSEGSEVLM

[3] = target: Cyclin-dependent kinase 5/CDK5 activator 1 (Homo sapiens) (UniProt Q00535+Q15078); test: Inhibition of human CDK5/p35 at 18.6 nM by HotSpot assay relative to control; format: protein-complex assay
[4] = target: Dual specificity protein kinase CLK3 (Homo sapiens) (UniProt P49761); test: Inhibition of human CLK3 at 18.6 nM by HotSpot assay relative to control
[5] = target: Serine/threonine-protein kinase Nek4 (Homo sapiens) (UniProt P51957); test: Inhibition of human NEK4 at 18.6 nM by HotSpot assay relative to control
[6] = target: RAC-gamma serine/threonine-protein kinase (Homo sapiens) (UniProt Q9Y243); test: Inhibition of human AKT3 at 1.82 nM by HotSpot assay relative to control
[7] = target: Receptor tyrosine-protein kinase erbB-4 (Homo sapiens) (UniProt Q15303); test: Inhibition of human ERBB4 at 1.82 nM by HotSpot assay relative to control
[8] = target: T3, Serine/threonine-protein kinase D3 (Homo sapiens) (UniProt O94806); test: Inhibition of human PRKD3 at 1.82 nM by HotSpot assay relative to control
T3 sequence (whole entry): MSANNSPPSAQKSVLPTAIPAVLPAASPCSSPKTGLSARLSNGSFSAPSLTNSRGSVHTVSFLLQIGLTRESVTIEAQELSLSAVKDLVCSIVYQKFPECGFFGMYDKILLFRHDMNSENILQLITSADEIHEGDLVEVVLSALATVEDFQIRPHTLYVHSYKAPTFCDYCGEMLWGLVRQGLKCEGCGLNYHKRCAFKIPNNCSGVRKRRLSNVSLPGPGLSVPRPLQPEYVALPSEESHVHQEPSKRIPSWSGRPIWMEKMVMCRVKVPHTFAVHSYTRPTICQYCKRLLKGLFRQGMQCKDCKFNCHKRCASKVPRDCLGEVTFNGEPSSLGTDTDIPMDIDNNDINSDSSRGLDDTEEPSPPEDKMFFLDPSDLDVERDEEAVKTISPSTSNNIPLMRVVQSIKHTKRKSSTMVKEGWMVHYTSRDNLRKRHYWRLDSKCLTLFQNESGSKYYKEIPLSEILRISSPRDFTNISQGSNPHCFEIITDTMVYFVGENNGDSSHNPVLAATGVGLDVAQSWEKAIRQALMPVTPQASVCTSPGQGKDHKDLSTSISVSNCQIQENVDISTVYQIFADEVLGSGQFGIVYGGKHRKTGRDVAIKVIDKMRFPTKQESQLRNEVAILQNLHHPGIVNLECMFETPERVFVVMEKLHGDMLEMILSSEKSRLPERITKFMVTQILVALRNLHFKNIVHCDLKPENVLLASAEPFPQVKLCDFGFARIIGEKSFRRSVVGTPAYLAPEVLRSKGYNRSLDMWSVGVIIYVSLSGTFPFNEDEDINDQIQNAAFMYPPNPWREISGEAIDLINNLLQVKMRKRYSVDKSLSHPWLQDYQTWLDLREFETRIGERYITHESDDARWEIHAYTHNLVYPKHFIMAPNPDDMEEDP

Cyclin-dependent kinase 5/CDK5 activator 1 (Homo sapiens), sequence (Q00535 whole entry): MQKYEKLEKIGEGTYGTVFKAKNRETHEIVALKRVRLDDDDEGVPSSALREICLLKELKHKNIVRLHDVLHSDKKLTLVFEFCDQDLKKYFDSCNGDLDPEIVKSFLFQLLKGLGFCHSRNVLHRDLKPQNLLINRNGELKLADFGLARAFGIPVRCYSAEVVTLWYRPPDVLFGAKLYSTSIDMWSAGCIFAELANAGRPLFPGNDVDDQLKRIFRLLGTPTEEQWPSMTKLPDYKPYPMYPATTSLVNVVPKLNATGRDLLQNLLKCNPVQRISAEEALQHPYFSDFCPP
Cyclin-dependent kinase 5/CDK5 activator 1 (Homo sapiens), sequence (Q15078 99-307 partner limits assumed): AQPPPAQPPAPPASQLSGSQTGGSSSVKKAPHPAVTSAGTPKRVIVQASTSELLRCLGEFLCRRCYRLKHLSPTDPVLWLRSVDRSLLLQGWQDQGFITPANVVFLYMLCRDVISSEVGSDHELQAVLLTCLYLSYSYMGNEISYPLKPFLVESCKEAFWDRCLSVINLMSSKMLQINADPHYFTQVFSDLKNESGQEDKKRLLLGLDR
Receptor tyrosine-protein kinase erbB-4 (Homo sapiens), sequence (Q15303 whole entry): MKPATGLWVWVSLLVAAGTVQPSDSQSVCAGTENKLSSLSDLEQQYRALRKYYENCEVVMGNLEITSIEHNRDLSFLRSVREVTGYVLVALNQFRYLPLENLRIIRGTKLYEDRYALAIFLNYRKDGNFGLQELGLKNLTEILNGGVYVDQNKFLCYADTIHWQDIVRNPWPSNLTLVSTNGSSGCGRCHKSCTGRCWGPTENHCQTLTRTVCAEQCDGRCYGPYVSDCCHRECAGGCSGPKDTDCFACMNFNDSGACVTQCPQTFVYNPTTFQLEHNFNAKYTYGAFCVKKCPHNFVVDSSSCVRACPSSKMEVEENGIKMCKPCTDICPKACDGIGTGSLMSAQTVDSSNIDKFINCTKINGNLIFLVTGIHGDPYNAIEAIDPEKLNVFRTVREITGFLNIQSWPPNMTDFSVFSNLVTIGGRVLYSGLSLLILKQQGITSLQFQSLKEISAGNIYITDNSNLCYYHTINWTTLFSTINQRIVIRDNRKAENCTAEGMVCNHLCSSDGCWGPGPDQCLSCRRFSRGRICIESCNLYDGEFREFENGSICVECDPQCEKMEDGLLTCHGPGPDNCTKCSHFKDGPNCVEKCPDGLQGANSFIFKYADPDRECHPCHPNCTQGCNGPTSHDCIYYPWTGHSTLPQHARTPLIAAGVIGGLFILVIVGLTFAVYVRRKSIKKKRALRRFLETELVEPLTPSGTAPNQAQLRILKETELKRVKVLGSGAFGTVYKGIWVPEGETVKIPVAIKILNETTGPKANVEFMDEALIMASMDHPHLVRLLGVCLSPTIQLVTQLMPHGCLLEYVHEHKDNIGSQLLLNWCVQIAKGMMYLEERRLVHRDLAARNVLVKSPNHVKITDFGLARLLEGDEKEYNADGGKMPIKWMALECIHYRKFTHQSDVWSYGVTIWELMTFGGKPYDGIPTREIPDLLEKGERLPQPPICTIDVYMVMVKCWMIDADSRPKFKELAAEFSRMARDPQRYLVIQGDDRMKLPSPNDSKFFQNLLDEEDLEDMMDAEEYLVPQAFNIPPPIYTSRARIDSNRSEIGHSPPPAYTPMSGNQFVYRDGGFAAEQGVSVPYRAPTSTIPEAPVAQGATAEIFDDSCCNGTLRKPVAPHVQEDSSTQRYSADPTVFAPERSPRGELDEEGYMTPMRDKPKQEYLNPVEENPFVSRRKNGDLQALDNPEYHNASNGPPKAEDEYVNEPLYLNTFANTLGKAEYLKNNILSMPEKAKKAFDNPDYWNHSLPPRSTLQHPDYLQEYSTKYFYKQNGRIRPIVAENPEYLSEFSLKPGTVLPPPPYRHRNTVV
Serine/threonine-protein kinase Nek4 (Homo sapiens), sequence (P51957 whole entry, looked up): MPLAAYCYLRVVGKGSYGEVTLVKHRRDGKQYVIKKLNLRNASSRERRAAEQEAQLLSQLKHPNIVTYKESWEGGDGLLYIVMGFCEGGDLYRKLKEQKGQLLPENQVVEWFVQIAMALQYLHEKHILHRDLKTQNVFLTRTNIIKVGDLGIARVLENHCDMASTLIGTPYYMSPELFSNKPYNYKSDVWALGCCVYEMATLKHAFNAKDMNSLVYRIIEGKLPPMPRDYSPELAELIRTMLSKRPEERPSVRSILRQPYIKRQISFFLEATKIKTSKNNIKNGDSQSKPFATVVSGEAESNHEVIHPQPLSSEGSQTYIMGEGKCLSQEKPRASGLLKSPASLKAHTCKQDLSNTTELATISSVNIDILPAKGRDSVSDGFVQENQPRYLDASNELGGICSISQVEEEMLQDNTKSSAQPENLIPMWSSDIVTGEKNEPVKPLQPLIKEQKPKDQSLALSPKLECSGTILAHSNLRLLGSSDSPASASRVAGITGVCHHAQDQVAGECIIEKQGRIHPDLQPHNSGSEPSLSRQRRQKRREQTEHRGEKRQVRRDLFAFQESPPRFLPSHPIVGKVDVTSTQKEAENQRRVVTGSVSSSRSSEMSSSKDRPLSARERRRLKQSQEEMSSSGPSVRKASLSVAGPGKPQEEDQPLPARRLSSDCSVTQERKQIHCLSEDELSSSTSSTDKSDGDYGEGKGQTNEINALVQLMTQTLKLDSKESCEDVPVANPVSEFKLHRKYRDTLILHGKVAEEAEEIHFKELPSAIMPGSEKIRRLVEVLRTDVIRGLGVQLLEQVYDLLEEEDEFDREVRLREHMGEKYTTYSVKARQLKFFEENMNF
RAC-gamma serine/threonine-protein kinase (Homo sapiens), sequence (Q9Y243 whole entry): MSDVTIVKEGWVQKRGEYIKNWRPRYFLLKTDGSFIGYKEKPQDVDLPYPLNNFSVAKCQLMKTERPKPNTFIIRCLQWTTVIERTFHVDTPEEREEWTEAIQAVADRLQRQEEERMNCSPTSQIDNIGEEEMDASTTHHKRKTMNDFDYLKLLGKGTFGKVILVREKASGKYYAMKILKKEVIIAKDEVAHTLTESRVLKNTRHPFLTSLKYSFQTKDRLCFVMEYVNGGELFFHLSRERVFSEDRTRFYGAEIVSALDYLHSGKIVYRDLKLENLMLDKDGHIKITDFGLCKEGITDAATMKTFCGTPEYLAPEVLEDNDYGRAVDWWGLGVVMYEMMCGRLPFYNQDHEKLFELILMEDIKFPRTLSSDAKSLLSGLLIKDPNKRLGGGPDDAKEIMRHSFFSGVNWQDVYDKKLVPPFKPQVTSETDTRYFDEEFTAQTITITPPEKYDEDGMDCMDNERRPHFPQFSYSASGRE
Dual specificity protein kinase CLK3 (Homo sapiens), sequence (P49761 whole entry, looked up): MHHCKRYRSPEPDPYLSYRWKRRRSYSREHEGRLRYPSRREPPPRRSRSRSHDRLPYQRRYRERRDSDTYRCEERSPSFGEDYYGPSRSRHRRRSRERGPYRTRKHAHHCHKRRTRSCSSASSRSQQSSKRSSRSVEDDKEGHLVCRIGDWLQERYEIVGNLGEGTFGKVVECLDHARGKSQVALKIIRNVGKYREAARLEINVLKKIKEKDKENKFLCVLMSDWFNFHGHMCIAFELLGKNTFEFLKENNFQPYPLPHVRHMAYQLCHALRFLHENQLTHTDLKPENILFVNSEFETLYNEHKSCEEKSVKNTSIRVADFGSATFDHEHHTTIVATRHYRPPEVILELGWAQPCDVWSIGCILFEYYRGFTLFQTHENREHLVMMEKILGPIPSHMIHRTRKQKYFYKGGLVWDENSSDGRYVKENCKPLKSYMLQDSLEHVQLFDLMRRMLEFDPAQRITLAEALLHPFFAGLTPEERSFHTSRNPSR

Row | inhibition [1] | inhibition [2] | inhibition [3] | inhibition [4] | inhibition [5] | inhibition [6] | inhibition [7] | inhibition [8] | SMILES
1 | 1.44% | -0.54% | -1.84% | -0.8% | -3.26% | – | – | – | C[C@]1(O)C[C@@H](c2nc(-c3ccc4ccc(-c5ccccc5)nc4c3)c3c(N)nccn32)C1
2 | – | – | – | – | – | 2.34% | 3.49% | 2.81% | C[C@@]1(C(=O)Nc2ccc(F)nc2)CCCN1c1nc(Nc2cc(C3CC3)n[nH]2)c2cccn2n1
